Assays:
[1] = target: T1, AMG-Z (AMG(1-526aa)::Z, Aspergillus niger glucoamylase fused to Z domain of Staphylococcus aureus protein A, SEQ ID NO 25) (Aspergillus niger, UniProt P69328); assay: Biacore SPR, binding of DAP AMG-Z to acarbose ligand (biotin-acarbose on SA chip)
T1 construct: made in house; host or cells: Aspergillus oryzae (transformant JaL1171 of host BECh2)
Excerpt: The commercialised surface plasmon resonance (SPR) technology for real time monitoring biomolecular binding event is used to measure the binding affinities for the prepared DAP candidates. The general principle of this technology is that a SPR sensor chip measures changes in refractive index, and the changes in refractive index correlate to changes in mass in the aqueous layer close to the sensor surface. When target molecules in solution bind to ligands, immobilised on the sensor surface, the mass increases, and when they dissociate from the ligands the mass decreases. This principle facilitates a continuous, real time monitoring of the association and dissociation of interacting molecules. The graphical presentation of the relationship provides quantitative information in real time on the binding specificity, active concentration of molecule in a sample, reaction kinetics and affinity. […]
Immobilisation occurred by direct covalent coupling to the surface (using the Amine Coupling Kit, BiaCore, GE Health Care) or via a capturing molecule as prescribed by the manufacturer (BiaCore, GE Health Care). The amount of coupled target was quantified and expressed in Refractive Units (RU). […]

[2] = system: VhhRR6(R2)-Z (variable region of Llama single chain antibody against RR6 fused to Z domain of Staphylococcus aureus protein A, SEQ ID NO 28); assay: Biacore SPR, binding of DAP VhhRR6(R2)-Z to Reactive Red 6 ligand (biotin-Reactive Red 6 on SA chip); details: Table 1 (summary, rounded)
Excerpt: (§1) The commercialised surface plasmon resonance (SPR) technology for real time monitoring biomolecular binding event is used to measure the binding affinities for the prepared DAP candidates. The general principle of this technology is that a SPR sensor chip measures changes in refractive index, and the changes in refractive index correlate to changes in mass in the aqueous layer close to the sensor surface. When target molecules in solution bind to ligands, immobilised on the sensor surface, the mass increases, and when they dissociate from the ligands the mass decreases. This principle facilitates a continuous, real time monitoring of the association and dissociation of interacting molecules. The graphical presentation of the relationship provides quantitative information in real time on the binding specificity, active concentration of molecule in a sample, reaction kinetics and affinity.
In order to evaluate the binding affinities for both of the binding affinities present in the DAP either IgG or the capturing ligand had to be immobilized onto the sensor chip. For IgG rabbit anti-Mannanase was used and for the ligand the chip was coated with streptavidin and the ligand was then immobilized via biotin linked to the appropriate ligand.
In order to measure the binding to RR6 and acarbose the following compounds were prepared; biotin-linked acarbose and biotin-linked RR6.
The mixture was stirred at RT for 30 min. […]
(§2) The DAP candidates were analysed for binding to the capturing ligand sensor chip and the target biomolecule sensor chip respectively. […]
Immobilisation occurred by direct covalent coupling to the surface (using the Amine Coupling Kit, BiaCore, GE Health Care) or via a capturing molecule as prescribed by the manufacturer (BiaCore, GE Health Care). The amount of coupled target was quantified and expressed in Refractive Units (RU).
Interactions were monitored by injecting samples (20 μl/min) over the prepared sensor surface of the chip. Unless stated otherwise, the binding was assessed in 10 mM sodium acetatbuffer pH 5.0 at room temperature. […]

[3] = system: VhhRR6(R2)-Z + IgG (variable region of Llama single chain antibody against RR6 fused to Z domain of Staphylococcus aureus protein A, SEQ ID NO 28, with IgG …); assay: Biacore SPR, binding of DAP VhhRR6(R2)-Z to Reactive Red 6 ligand in the presence of IgG; details: Table 1 footnote b; VhhRR6(R2)-Z mixed with IgG before loading to the Biacore
Excerpt: as §1, with “affinity. […]” for “affinity.”
as §2
Immobilisation occurred by direct covalent coupling to the surface (using the Amine Coupling Kit, BiaCore, GE Health Care) or via a capturing molecule as prescribed by the manufacturer (BiaCore, GE Health Care). The amount of coupled target was quantified and expressed in […] (RU). […]

T1 sequence (P69328 25-526, added parts left off): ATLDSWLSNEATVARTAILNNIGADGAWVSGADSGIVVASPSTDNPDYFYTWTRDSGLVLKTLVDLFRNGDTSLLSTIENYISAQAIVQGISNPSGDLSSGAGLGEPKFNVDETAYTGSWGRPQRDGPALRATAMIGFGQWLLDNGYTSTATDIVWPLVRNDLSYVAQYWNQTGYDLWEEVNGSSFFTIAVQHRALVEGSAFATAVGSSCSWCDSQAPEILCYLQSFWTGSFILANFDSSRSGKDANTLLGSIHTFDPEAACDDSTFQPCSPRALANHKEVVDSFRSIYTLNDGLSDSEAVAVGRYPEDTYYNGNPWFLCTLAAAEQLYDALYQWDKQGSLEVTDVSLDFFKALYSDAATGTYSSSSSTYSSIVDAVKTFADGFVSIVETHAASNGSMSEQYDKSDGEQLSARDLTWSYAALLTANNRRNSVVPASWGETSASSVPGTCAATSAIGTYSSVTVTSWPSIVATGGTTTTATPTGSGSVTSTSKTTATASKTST

Compound | kon ([1]; pH 5, read-out: Ligand binding ka) [M⁻¹ s⁻¹] | koff ([1]; pH 5, read-out: Ligand binding kd) [s⁻¹] | Kd [2] [µM] | Ligand binding ka [2] [M⁻¹ s⁻¹] | Ligand binding kd [2] [s⁻¹] | Kd [3] [µM] | binding after injection is stopped [3]
C[C@H]1O[C@H](O[C@H]2[C@H](O)[C@@H](O)[C@@H](O[C@H]3[C@H](O)[C@@H](O)C(O)O[C@@H]3CO)O[C@@H]2CO)[C@H](O)[C@@H](O)[C@@H]1N[C@H]1C=C(CO)[C@@H](O)[C@H](O)[C@H]1O (stereo partly shown) [Acarbose] | 10000 | 0.002 | – | – | – | – | –
Reactive Red 6 [RR6] | – | – | 0.2 | 20000 | 0.004 | 10 | the binding is broken completely as soon as the injection is stopped

— patent US20110207916A1, “Dual Affinity Polypeptides for Purification” (priority 2007, published 2011)
